Measured values published in ChEMBL document CHEMBL5104178, “Nitroimidazopyrazinones with Oral Activity against Tuberculosis and Chagas Disease in Mouse Models of Infection” (J Med Chem, 2022).
≈ marks a conversion by molar mass, not a printed value.

Experiments:
[1] = system: Mycobacterium tuberculosis; experiment: Antimycobacterial activity against Mycobacterium tuberculosis H37Rv ATCC 27294 assessed as bacterial growth inhibition incubated for 5 days under hypoxic condition by resazurin microtiter assay; format: functional; conditions: H37Rv ATCC 27294, 120 h, time 5 day
[2] = system: Mycobacterium tuberculosis; experiment: Antimycobacterial activity against Mycobacterium tuberculosis H37Rv ATCC 27294 assessed as bacterial growth inhibition incubated for 5 days under normoxic condition by resazurin microtiter assay; format: functional; conditions: H37Rv ATCC 27294, 120 h, time 5 day
[3] = system: Mycobacterium tuberculosis; experiment: Substrate activity at Mycobacterium tuberculosis Ddn expressed in Escherichia coli BL21 (DE3) assessed as oxidation of F420H2 by measuring Km by spectrophotometric analysis
[4] = system: Mycolicibacterium smegmatis; experiment: Antimycobacterial activity against Mycobacterium smegmatis mc2155 ATCC 700084 assessed as bacterial growth inhibition incubated for 24 hrs under normoxic condition by resazurin microtiter assay; format: functional
[5] = system: Mycobacterium tuberculosis; experiment: Antimycobacterial activity against Mycobacterium tuberculosis H37Ra ATCC 25177 assessed as bacterial growth inhibition incubated for 6 days under normoxic condition by resazurin microtiter assay; format: functional; conditions: H37Ra ATCC 25177, 144 h, time 6 day
[6] = system: Mycobacterium avium; experiment: Antimycobacterial activity against Mycobacterium avium ATCC 25291 assessed as bacterial growth inhibition incubated for 6 days under normoxic condition by resazurin microtiter assay; format: functional; conditions: ATCC 25291, 144 h, time 6 day
[7] = system: Mycobacterium tuberculosis; experiment: Substrate activity at Mycobacterium tuberculosis Ddn expressed in Escherichia coli BL21 (DE3) assessed as oxidation of F420H2 by measuring Kcat/Km by spectrophotometric analysis
[8] = system: Mycobacterium tuberculosis; experiment: Substrate activity at Mycobacterium tuberculosis Ddn expressed in Escherichia coli BL21 (DE3) assessed as oxidation of F420H2 by measuring Kcat by spectrophotometric analysis
[9] = Volume of distribution at steady state in CD-1 mouse at 5 mg/kg, iv administered as DMSO/PEG400 formulation measured upto 24 hrs by LC-MS/MS analysis; format: ADME, organism-based; conditions: in vivo, read-out: Vdss
[10] = Cmax in CD-1 mouse at 20 mg/kg, po administered as DMSO/PEG400 formulation measured upto 24 hrs by LC-MS/MS analysis; format: ADME, organism-based; design: dose 20 mg/kg, time < 24 hrs, route po; conditions: in vivo
[11] = Clearance in CD-1 mouse at 5 mg/kg, iv administered as DMSO/PEG400 formulation measured upto 24 hrs by LC-MS/MS analysis; format: ADME, organism-based; conditions: in vivo
[12] = Tmax in CD-1 mouse at 20 mg/kg, po administered as DMSO/PEG400 formulation measured upto 24 hrs by LC-MS/MS analysis; format: ADME, organism-based; conditions: in vivo
[13] = Half life in CD-1 mouse at 5 mg/kg, iv administered as DMSO/PEG400 formulation measured upto 24 hrs by LC-MS/MS analysis; format: ADME, organism-based; conditions: in vivo
[14] = Oral bioavailability in CD-1 mouse at 20 mg/kg administered as DMSO/PEG400 formulation measured upto 24 hrs by LC-MS/MS analysis; format: ADME, organism-based; conditions: in vivo
[15] = AUC(0 to 24 hrs) in CD-1 mouse at 20 mg/kg, po administered as DMSO/PEG400 formulation measured upto 24 hrs by LC-MS/MS analysis; format: ADME, organism-based; design: dose 20 mg/kg, time < 24 hrs, route po; conditions: in vivo
[16] = Half life in CD-1 mouse at 20 mg/kg, po administered as DMSO/PEG400 formulation measured upto 24 hrs by LC-MS/MS analysis; format: ADME, organism-based; conditions: in vivo
[17] = Solubility of compound in PBS at 7.4 by LC-UV analysis; format: physicochemical; conditions: pH 7.4
[18] = Solubility of compound in water by LC-UV analysis; format: physicochemical
[19] = Cmax in CD-1 mouse at 20 mg/kg, po administered as DMSO/PEG400/Cremophor RH40/water formulation measured upto 24 hrs by LC-MS/MS analysis; format: ADME, organism-based; design: dose 20 mg/kg, time < 24 hrs, route po; conditions: in vivo
[20] = Half life in CD-1 mouse at 5 mg/kg, iv administered as DMSO/PEG400/Cremophor RH40/water formulation measured upto 24 hrs by LC-MS/MS analysis; format: ADME, organism-based; conditions: in vivo
[21] = AUC(0 to 8 hrs) in CD-1 mouse at 20 mg/kg, po administered as DMSO/PEG400/Cremophor RH40/water formulation measured upto 24 hrs by LC-MS/MS analysis; format: ADME, organism-based; design: time < 24 hrs, dose 20 mg/kg, route po; conditions: in vivo
[22] = Volume of distribution at steady state in CD-1 mouse at 5 mg/kg, iv administered as DMSO/PEG400/Cremophor RH40/water formulation measured upto 24 hrs by LC-MS/MS analysis; format: ADME, organism-based; conditions: in vivo, read-out: Vdss
[23] = Clearance in CD-1 mouse at 5 mg/kg, iv administered as DMSO/PEG400/Cremophor RH40/water formulation measured upto 24 hrs by LC-MS/MS analysis; format: ADME, organism-based; conditions: in vivo
[24] = Half life in CD-1 mouse at 20 mg/kg, po administered as DMSO/PEG400/Cremophor RH40/water formulation measured upto 24 hrs by LC-MS/MS analysis; format: ADME, organism-based; conditions: in vivo
[25] = Oral bioavailability in CD-1 mouse at 20 mg/kg administered as DMSO/PEG400/Cremophor RH40/water formulation measured upto 24 hrs by LC-MS/MS analysis; format: ADME, organism-based; conditions: in vivo
[26] = Tmax in CD-1 mouse at 20 mg/kg, po administered as DMSO/PEG400/Cremophor RH40/water formulation measured upto 24 hrs by LC-MS/MS analysis; format: ADME, organism-based; conditions: in vivo
[27] = system: Mycobacterium tuberculosis; experiment: Antimycobacterial activity against Mycobacterium tuberculosis H37Rv ATCC 27294 assessed as bacterial growth inhibition at 0.125 to 8 ug/ml incubated for 5 days under hypoxic condition by resazurin microtiter assay relative to control; format: functional; conditions: dose 0.125-8 µg/ml; time 5 day; at 0.125 to 8 µg/mL
[28] = system: Trypanosoma cruzi; experiment: Antitrypanosomal activity against Trypanosoma cruzi Tulahuen amastigotes infected in mouse 3T3 cells assessed as inhibition of parasite growth incubated for 48 hrs by […] staining based analysis; format: functional, organism-based
[29] = system: Trypanosoma cruzi; experiment: Antitrypanosomal activity against Trypanosoma cruzi Tulahuen amastigotes infected in mouse 3T3 cells assessed as reduction in parasite growth at Emax concentration incubated for 48 hrs by […] staining based analysis; format: functional; design: scale not given: the % may be the effect or the level left
[30] = Selectivity index, ratio of CC50 for cytotoxicity against mouse 3T3 cells to IC50 for antitrypanosomal activity against Trypanosoma cruzi Tulahuen amastigotes infected in mouse 3T3 cells; format: toxicity, cell-based; conditions: read-out: Ratio CC50/IC50
[31] = Cytotoxicity against mouse 3T3 cells; format: toxicity, cell-based; conditions: NIH3T3 cells
[32] = Cmax in CD-1 mouse at 25 mg/kg, po measured upto 48 hrs by LC/MS/MS analysis; format: ADME, organism-based; design: time < 48 hrs, dose 25 mg/kg, route po; conditions: in vivo
[33] = Half life in CD-1 mouse at 10 mg/kg, iv measured upto 48 hrs by LC/MS/MS analysis; format: ADME, organism-based; conditions: in vivo
[34] = Volume of distribution at steady state in CD-1 mouse at 10 mg/kg, iv measured upto 48 hrs by LC/MS/MS analysis; format: ADME, organism-based; conditions: in vivo, read-out: Vdss
[35] = Oral bioavailability in CD-1 mouse at 25 mg/kg measured upto 48 hrs by LC/MS/MS analysis; format: ADME, organism-based; conditions: in vivo
[36] = AUC (0 to last) in CD-1 mouse at 25 mg/kg, po measured upto 48 hrs by LC/MS/MS analysis; format: ADME, organism-based; design: dose 25 mg/kg, time < 48 hrs, route po; conditions: in vivo
[37] = Tmax in CD-1 mouse at 25 mg/kg, po measured upto 48 hrs by LC/MS/MS analysis; format: ADME, organism-based; conditions: in vivo
[38] = Half life in CD-1 mouse at 25 mg/kg, po measured upto 48 hrs by LC/MS/MS analysis; format: ADME, organism-based; conditions: in vivo
[39] = Clearance in CD-1 mouse at 10 mg/kg, iv measured upto 48 hrs by LC/MS/MS analysis; format: ADME, organism-based; conditions: in vivo

Cc1nc(OCc2ccc(OC(F)(F)F)cc2)c2nc([N+](=O)[O-])cn2c1C
MIC [1]: > 32 µg/mL | MIC [2]: > 32 µg/mL | Km [3]: 30 µM | MIC [4]: > 32 µg/mL | MIC [5]: > 32 µg/mL | MIC [6]: > 32 µg/mL | kcat/Km [7]: 24 M⁻¹ s⁻¹ | kcat [8]: 7 10^-4/s

O=c1c2nc([N+](=O)[O-])cn2ccn1Cc1ccc(-c2ccc(OC(F)(F)F)cc2)cn1
Vd [9]: 1.3 L/kg | Cmax [10]: 3600 ng/mL | clearance [11]: 2.06 mL/min/kg | Tmax [12]: 5.3 h | half-life [13]: 7.2 h | bioavailability [14]: 45% | AUC(0-t) at 24 h [15]: 45900 ng·h/mL | half-life [16]: 6.1 h

Cc1cn2cc([N+](=O)[O-])nc2c(=O)n1Cc1ccc(OC(F)(F)F)cc1
MIC [2]: > 32 µg/mL | MIC [4]: > 32 µg/mL | MIC [5]: 4 µg/mL (≈ 10.9 µM) | MIC [6]: > 32 µg/mL

O=C1c2nc([N+](=O)[O-])cn2CN1Cc1ccccc1
solubility [17]: 5.9 µM (≈ 1.52 µg/mL) | solubility ([18]; water, read-out: solubility): 5.9 µM (≈ 1.52 µg/mL) | MIC [1]: > 32 µg/mL | MIC [2]: > 32 µg/mL

O=c1[nH]c(-c2ccccc2)cn2cc([N+](=O)[O-])nc12
solubility ([18]; buffer): 27 µM (≈ 6.92 µg/mL) | MIC [1]: > 32 µg/mL | Cmax [19]: 13000 ng/mL | MIC [2]: > 32 µg/mL | half-life [20]: 1.2 h | AUC(0-t) at 24 h [21]: 88300 ng·h/mL | Km [3]: 164 µM | Vd [22]: 0.34 L/kg | clearance [23]: 3.38 mL/min/kg | half-life [24]: 3.2 h | MIC [4]: > 32 µg/mL | bioavailability [25]: 87% | MIC [5]: > 32 µg/mL | MIC [6]: > 32 µg/mL | kcat/Km [7]: 8.1 M⁻¹ s⁻¹ | Tmax [26]: 2 h | kcat [8]: 1.3 10^-3/s

Cc1cccc(Cn2ccn3cc([N+](=O)[O-])nc3c2=O)c1
MIC [2]: 0.063 µg/mL (≈ 0.222 µM) | MIC [4]: > 32 µg/mL | MIC [5]: ≤ 0.016 µg/mL | MIC [6]: > 32 µg/mL | inhibition (INH) [27]: 70%

O=c1c2nc([N+](=O)[O-])cn2ccn1Cc1cncc(-c2cccc(OC(F)(F)F)c2)c1
Km [3]: 4.3 µM | kcat/Km [7]: 3190 M⁻¹ s⁻¹ | kcat [8]: 1.4 10^-2/s

CC[C@@H]([C@H](C)O)n1ncn(-c2ccc(N3CCN(c4ccc(OC[C@@H]5CO[C@@](Cn6cncn6)(c6ccc(F)cc6F)C5)cc4)CC3)cc2)c1=O [POSACONAZOLE]
IC50 ([28]; NIH3T3, 48 h): 2 nM | IC90 ([28]; NIH3T3, time 48 hrs): 4 nM | Activity [29]: 87% | selectivity ratio [30]: > 569 | CC50 [31]: > 1000 nM

O=[N+]([O-])c1cn2c(n1)OC[C@@H](OCc1ccc(OC(F)(F)F)cc1)C2 [PRETOMANID]
Cmax [32]: 6000 ng/mL | half-life [33]: 1.6 h | Km [3]: 7.3 µM | Vd [34]: 1.6 L/kg | bioavailability [35]: 100% | MIC [4]: > 32 µg/mL | MIC [5]: ≤ 0.016 µg/mL | MIC [6]: > 32 µg/mL | AUC(0-t) at 48 h [36]: 50900 ng·h/mL | kcat/Km [7]: 1260 M⁻¹ s⁻¹ | Tmax [37]: 2 h | kcat [8]: 9.3 10^-3/s | half-life [38]: 2.7 h | clearance [39]: 12.1 mL/min/kg

Cc1ccc(Cn2ccn3cc([N+](=O)[O-])nc3c2=O)cc1
Km [3]: 2.5 µM | kcat/Km [7]: 1710 M⁻¹ s⁻¹ | kcat [8]: 4.3 10^-3/s
